biological target: T1, CDK2 (Homo sapiens, UniProt P24941); test: Phospho-RB measurement in OVCAR3 cells (HTRF phospho-RB S807/811); type: cell-based; conditions: phosphorylation of RB protein at S807/811, HTRF, 24 h compound treatment, 0.3 to 10,000 nM, read-out: pRb (uM)
T1 construct: endogenous in cells; host or cells: OVCAR3 cells
How it was run: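 IC50 values come from four-parameter logistic fits of the DMSO-normalised 665/620 nm TR-FRET ratio for phospho-RB (S807/811). Antibody detection ran 4 h at room temperature.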

Row | SMILES | IC50 [µM]
1 | O=S1(=O)CC2(CC(Nc3nccc(-c4sc(C5(C(F)F)CC5)nc4-c4cccc(NS(=O)(=O)c5c(F)cccc5C(F)(F)F)c4F)n3)C2)C1 [Example 80, N-(3-(2-(1-(difluoromethyl)cyclopropyl)-5-(2-((2,2-dioxido-2-thiaspiro[3.3]heptan-6-yl)amino)pyrimidin-4-yl)thiazol-4-yl)-2-fluorophenyl)-2-fluoro-6-(trifluoromethyl)benzenesulfonamide] | 0.06
2 | CS(=O)(=O)[C@H]1CC[C@H](Nc2nccc(-c3sc(C45CC(C(F)(F)F)(C4)C5)nc3-c3cccc(NS(=O)(=O)c4c(F)cccc4C(F)(F)F)c3F)n2)CC1 [Example 35, 2-fluoro-N-(2-fluoro-3-(5-(2-(((1r,4r)-4-(methylsulfonyl)-cyclohexyl)amino)pyrimidin-4-yl)-2-(3-(trifluoromethyl)-bicyclo[1.1.1]pentan-1-yl)thiazol-4-yl)phenyl)-6-(trifluoromethyl)-benzenesulfonamide] | 0.29
3 | O=S1(=O)C[C@@H]2[C@H](C1)[C@H]2Nc1nccc(-c2sc(C34CCC(CC3)CC4)nc2-c2cccc(NS(=O)(=O)c3c(F)cccc3F)c2F)n1 [Example 116, N-(3-(2-(bicyclo[2.2.2]octan-1-yl)-5-(2-(((1R,5S,6r)-3,3-dioxido-3-thiabicyclo[3.1.0]hexan-6-yl)amino)pyrimidin-4-yl)thiazol-4-yl)-2-fluorophenyl)-2,6-difluorobenzenesulfonamide] | 0.09
4 | O=S1(=O)CC2(CC(Nc3nccc(-c4sc(N5C6CCC5CN(C5CCOCC5)C6)nc4-c4cccc(NS(=O)(=O)c5c(F)cccc5F)c4F)n3)C2)C1 [Example 148, N-(3-(5-(2-((2,2-dioxido-2-thiaspiro[3.3]heptan-6-yl)amino)pyrimidin-4-yl)-2-(3-(tetrahydro-2H-pyran-4-yl)-3,8-diazabicyclo[3.2.1]octan-8-yl)thiazol-4-yl)-2-fluorophenyl)-2,6-difluorobenzenesulfonamide] | 0.4
5 | O=S1(=O)CC2(CC(Nc3nccc(-c4sc(C56CC(C(F)(F)F)(C5)C6)nc4-c4cccc(NS(=O)(=O)c5c(F)cccc5F)c4F)n3)C2)C1 [Example 39, N-(3-(5-(2-((2,2-dioxido-2-thiaspiro[3.3]heptan-6-yl)amino)-pyrimidin-4-yl)-2-(3-(trifluoromethyl)bicyclo[1.1.1]pentan-1-yl)thiazol-4-yl)-2-fluorophenyl)-2,6-difluorobenzenesulfonamide] | 0.35
6 | O=S1(=O)CC2(CC(Nc3nccc(-c4sc(N5C6CCC5CN(C5CCC5)C6)nc4-c4cccc(NS(=O)(=O)c5c(F)cccc5F)c4F)n3)C2)C1 [Example 52, N-(3-(2-(3-cyclobutyl-3,8-diazabicyclo[3.2.1]octan-8-yl)-5-(2-((2,2-dioxido-2-thiaspiro[3.3]heptan-6-yl)amino)pyrimidin-4-yl)thiazol-4-yl)-2-fluorophenyl)-2,6-difluorobenzenesulfonamide] | 0.08
7 | CS(=O)(=O)[C@H]1CC[C@@H](Nc2nccc(-c3sc(C45CC(F)(C4)C5)nc3-c3cccc(NS(=O)(=O)c4c(F)cccc4C(F)(F)F)c3F)n2)CC1 [Example 87, 2-fluoro-N-(2-fluoro-3-(2-(3-fluorobicyclo[1.1.1]pentan-1-yl)-5-(2-(((1s,4s)-4-(methylsulfonyl)cyclohexyl)-amino)pyrimidin-4-yl)thiazol-4-yl)phenyl)-6-(trifluoromethyl)benzenesulfonamide] | 0.077
8 | CC1CN(C)CC(C)N1c1nc(-c2cccc(NS(=O)(=O)c3c(F)cccc3F)c2F)c(-c2ccnc(NC3CC4(C3)CS(=O)(=O)C4)n2)s1 (stereo not drawn) [Example 53, N-(3-(5-(2-((2,2-dioxido-2-thiaspiro[3.3]heptan-6-yl)amino)-pyrimidin-4-yl)-2-(2,4,6-trimethylpiperazin-1-yl)thiazol-4-yl)-2-fluorophenyl)-2,6-difluorobenzenesulfonamide] | 0.04
9 | O=S1(=O)CC2(CC(Nc3nccc(-c4sc(N5C6CCC5CN(C5CC(F)(F)C5)C6)nc4-c4cccc(NS(=O)(=O)c5c(F)cccc5C(F)(F)F)c4F)n3)C2)C1 [Example 149, N-(3-(2-(3-(3,3-difluorocyclobutyl)-3,8-diazabicyclo[3.2.1]octan-8-yl)-5-(2-((2,2-dioxido-2-thiaspiro[3.3]heptan-6-yl)amino)pyrimidin-4-yl)thiazol-4-yl)-2-fluorophenyl)-2-fluoro-6-(trifluoromethyl)benzenesulfonamide] | 0.09
10 | CN1CC2CCC(C1)N2c1nc(-c2cccc(NS(=O)(=O)c3c(F)cccc3C(F)(F)F)c2F)c(-c2ccnc(NC3[C@H]4CS(=O)(=O)C[C@@H]34)n2)s1 (stereo partly drawn) [Example 111, N-(3-(5-(2-(((1R,5S,6s)-3,3-dioxido-3-thiabicyclo[3.1.0]hexan-6-yl)amino)pyrimidin-4-yl)-2-(3-methyl-3,8-diazabicyclo[3.2.1]octan-8-yl)thiazol-4-yl)-2-fluorophenyl)-2-fluoro-6-(trifluoromethyl)benzenesulfonamide] | 0.08
11 | C[C@@H]1CN(C)C[C@@H](C)N1c1nc(-c2cccc(NS(=O)(=O)c3c(F)cccc3F)c2F)c(-c2ccnc(NC3CC4(C3)CS(=O)(=O)C4)n2)s1 [Example 60, N-(3-(5-(2-((2,2-dioxido-2-thiaspiro[3.3]heptan-6-yl)amino)-pyrimidin-4-yl)-2-((2R,6R)-2,4,6-trimethylpiperazin-1-yl)thiazol-4-yl)-2-fluorophenyl)-2,6-difluorobenzenesulfonamide] | 0.9
12 | CN1CC2CCC1CN2c1nc(-c2cccc(NS(=O)(=O)c3c(F)cccc3F)c2F)c(-c2ccnc(NC3CC4(C3)CS(=O)(=O)C4)n2)s1 (stereo not drawn) [Example 28, N-(3-(5-(2-((2,2-dioxido-2-thiaspiro[3.3]heptan-6-yl)amino)pyrimidin-4-yl)-2-(5-methyl-2,5-diazabicyclo[2.2.2]octan-2-yl)thiazol-4-yl)-2-fluorophenyl)-2,6-difluorobenzenesulfonamide] | 1.17
13 | O=S1(=O)C[C@@H]2[C@H](C1)[C@H]2Nc1nccc(-c2sc(N3C4CCC3CN(C3CCC3)C4)nc2-c2cccc(NS(=O)(=O)c3c(F)cccc3C(F)(F)F)c2F)n1 [Example 131, N-(3-(2-(3-cyclobutyl-3,8-diazabicyclo[3.2.1]octan-8-yl)-5-(2-(((1R,5S,6r)-3,3-dioxido-3-thiabicyclo[3.1.0]hexan-6-yl)amino)-pyrimidin-4-yl)thiazol-4-yl)-2-fluorophenyl)-2-fluoro-6-(trifluoromethyl)benzenesulfonamide] | 0.12
14 | O=S1(=O)CC2C(C1)C2Nc1nccc(-c2sc(N3C4CCC3COC4)nc2-c2cccc(NS(=O)(=O)c3c(F)cccc3C(F)(F)F)c2F)n1 (stereo not drawn) [Example 112, N-(3-(2-(3-oxa-8-azabicyclo[3.2.1]octan-8-yl)-5-(2-((3,3-dioxido-3-thiabicyclo[3.1.0]hexan-6-yl)amino)pyrimidin-4-yl)thiazol-4-yl)-2-fluorophenyl)-2-fluoro-6-(trifluoromethyl)benzenesulfonamide] | 0.03
15 | O=S1(=O)CC2(CC(Nc3nccc(-c4sc(C56CC(F)(C5)C6)nc4-c4cccc(NS(=O)(=O)c5c(F)cccc5F)c4F)n3)C2)C1 [Example 7, N-(3-(5-(2-((2,2-dioxido-2-thiaspiro[3.3]heptan-6-yl)amino)pyrimidin-4-yl)-2-(3-fluorobicyclo[1.1.1]pentan-1-yl)thiazol-4-yl)-2-fluorophenyl)-2,6-difluorobenzenesulfonamide] | 0.39
